This is an account of results in ChEMBL document CHEMBL5370685, “Novel 1,8-Naphthalimide Derivatives As Antitumor Agents and Potent Demethylase Inhibitors” (ACS Med Chem Lett, 2023).

A short description of data set [1]: Antiproliferative activity against mouse A261 cells assessed as inhibition of cell growth. It counts as functional, cell-based.
Data set [2] is described as follows: Antiproliferative activity against human A549R cells assessed as inhibition of cell growth. It counts as functional, cell-based.
Data set [3] deals with A549. Briefly: Antiproliferative activity against human A549 cells assessed as inhibition of cell growth. It counts as functional, cell-based.
A further data set deals with NB-4. Put plainly: Antiproliferative activity against human NB4 cells assessed as inhibition of cell growth. In kind it is functional, cell-based.
Data set [4] has as its target T1, Alpha-ketoglutarate-dependent dioxygenase FTO (Homo sapiens, UniProt Q9C0B1). Put plainly: Inhibition of human FTO assessed as reduction in enzyme-mediated demethylation of m6A-ssDNA incubated for 2 hrs by PAGE analysis.
Target sequence in this assay (Q9C0B1 whole entry): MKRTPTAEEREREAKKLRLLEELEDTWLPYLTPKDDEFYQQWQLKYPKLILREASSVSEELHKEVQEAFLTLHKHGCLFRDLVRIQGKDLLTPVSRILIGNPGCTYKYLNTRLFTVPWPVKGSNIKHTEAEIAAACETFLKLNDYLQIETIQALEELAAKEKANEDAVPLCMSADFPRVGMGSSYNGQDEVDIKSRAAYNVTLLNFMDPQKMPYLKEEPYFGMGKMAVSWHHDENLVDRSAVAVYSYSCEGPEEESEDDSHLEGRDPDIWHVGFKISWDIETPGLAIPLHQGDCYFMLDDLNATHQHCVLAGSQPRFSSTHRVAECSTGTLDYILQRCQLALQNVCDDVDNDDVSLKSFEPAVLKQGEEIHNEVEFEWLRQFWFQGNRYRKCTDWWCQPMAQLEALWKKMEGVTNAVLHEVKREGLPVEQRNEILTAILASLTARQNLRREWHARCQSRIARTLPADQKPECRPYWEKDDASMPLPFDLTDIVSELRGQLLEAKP
Data set [5] in a line: Selectivity index, ratio of IC50 for cytotoxicity against HLF cells to IC50 for antiproliferative activity against human A549 cells. It counts as cell-based. The following applies: HLF cells versus A549 cells, read-out: Ratio IC50.
Data set [6] can be described thus: Cytotoxicity against HLF cells assessed as inhibition of cell growth. The following applies: human. In kind it is toxicity, cell-based.
In data set [7] the target is T1, Alpha-ketoglutarate-dependent dioxygenase FTO. Briefly: Inhibition of human FTO assessed as reduction in enzyme-mediated demethylation of m6A-ssDNA at 12.5 uM incubated for 2 hrs by PAGE analysis.
Target sequence in this assay (Q9C0B1 whole entry, looked up): as the sequence (Q9C0B1 whole entry) above
The subject of data set [8] is A549. Put plainly: Induction of autophagy in human A549 cells assessed as upregulation of LC3-II protein expression at 3 to 9 uM incubated for 24 hrs by Western blot analysis. The following applies: dose 3-9 µM. In kind it is functional, cell-based. A general note: Immunoblotting shows a protein as a band on a membrane.
The target in data set [9] is T1, Alpha-ketoglutarate-dependent dioxygenase FTO. Briefly: Inhibition of FTO in human A549 cells assessed as upregulation of p53 protein expression incubated for 24 hrs by Western blot analysis. In kind it is cell-based. The following applies: dose 3-9 µM.
Target sequence in this assay (Q9C0B1 whole entry, looked up): as the sequence (Q9C0B1 whole entry) above
The target is the same in data set [10]. Briefly: Inhibition of FTO in human A549 cells assessed as upregulation of gammaH2AX protein expression at 3 to 9 uM incubated for 24 hrs by Western blot analysis. The following applies: dose 3-9 µM. In kind it is cell-based.
Target sequence in this assay (Q9C0B1 whole entry, looked up): as the sequence (Q9C0B1 whole entry) above
The test system of data set [11] is A549. Briefly: Antiproliferative activity against human A549 cells cultured as 3D spheroids assessed as decrease in multicellular tumor spheroid size at 20 uM treated for 5 days by live-cell phase-contrast microscopy. It counts as functional, cell-based. The following applies: time 5.0 day.
Data set [12] concerns A549. Briefly: Effect on FTO expression in human A549 cells at 3 to 9 uM incubated for 24 hrs by Western blot analysis. In kind it is functional, cell-based. The following applies: dose 3-9 µM.
Data set [13] has as its system A549. Briefly: Induction of autophagy in human A549 cells assessed as downregulation of p62 protein expression at 3 to 9 uM incubated for 24 hrs by Western blot analysis. In kind it is functional, cell-based. The following applies: dose 3-9 µM.

As usually defined, the IC50 is the concentration that inhibits the measured activity by half.

The source made the active and inactive calls. The calls are words filed in the database; no cut-off is given here.

In the case of `C#CCCCCNCCN1C(=O)c2cccc3cc(NC(=O)c4ccccn4)cc(c23)C1=O`, the half-maximal inhibitory concentration (IC50) in data set [1] is 5.3 µM; in [2] it was 9.5 µM; in the data set with A549 [3], 4.7 µM; with NB-4, 9.8 µM.

Turning to `CN(C)CCN1C(=O)c2cccc3cc([N+](=O)[O-])cc(c23)C1=O` [MITONAFIDE], the IC50 in data set [1] worked out at 2.8 µM; in data set [4], 34.8 µM; in data set [2] it was 1.8 µM; in data set [6], 2.8 µM; with A549 [3], 1.5 µM; in the data set with NB-4, 3.4 µM. In addition, in [5], the selectivity ratio is 1.9.

For the compound `C#CCN(C)CCN1C(=O)c2cccc3cc(N)cc(c23)C1=O`, the IC50 (in data set [1]; in data set [2]; in [6]; in the data set with A549 [3]; in the data set on NB-4) was above 20 µM in each case.

On to `CN(C)CCN1C(=O)c2cccc3cc(N)cc(c23)C1=O` [AMONAFIDE], for which the IC50 in data set [1] was 9.2 µM; in data set [2], 9.5 µM; in [6], 8.8 µM; in the data set on A549 [3], 4.3 µM; in the data set with NB-4, 5.7 µM.

Take `NCCN1C(=O)c2cccc3cc(NC(=O)c4ccccn4)cc(c23)C1=O`: the IC50 is 4.1 µM in [1], 7.3 µM in [2], 5.2 µM in the data set on A549 [3] and 8.4 µM in the data set on NB-4.

Consider `CNCCN1C(=O)c2cccc3cc([N+](=O)[O-])cc(c23)C1=O`, for which the IC50 in data set [1] stood at 2.5 µM; in data set [4], 5.7 µM; in [2] it was 6.2 µM; in data set [6], 6.9 µM; in the data set on A549 [3] it was 2.8 µM; with NB-4 it was 7 µM. In addition, the inhibition result in data set [7] and in data set [10] was “Active” each time. Moreover, the outcome in the data set with A549 [8], in the data set on A549 [11] and in the data set with A549 [13] was Active. For the same compound, the selectivity ratio in data set [5] was determined as 2.5. Further, the inhibition result in data set [9] was “Dose-Dependent Effect”. Further, the outcome with A549 [12] was inactive.

As for `C#CCN(C)CCN1C(=O)c2cccc3cc([N+](=O)[O-])cc(c23)C1=O`, the IC50 (in data set [1]; in data set [2]; in data set [6]; in the data set with A549 [3]; in the data set with NB-4) was above 20 µM each time.

With `CNCCN1C(=O)c2cccc3cc(NC(=O)c4ccccn4)cc(c23)C1=O`, the IC50 came to 3.5 µM in data set [1], 7.2 µM in data set [2], 2.9 µM with A549 [3] and 12.9 µM with NB-4.

Turning to `C#CCCC1(CCNCCN2C(=O)c3cccc4cc(NC(=O)c5ccccn5)cc(c34)C2=O)N=N1`, the half-maximal inhibitory concentration (IC50) in [1] is 8.5 µM; in data set [2], above 20 µM; in the data set with A549 [3], above 20 µM; with NB-4, 10.6 µM.

Take `C#CCN(C)CCN1C(=O)c2cccc3cc(NC(=O)C=C)cc(c23)C1=O`: the IC50 in data set [1] is above 20 µM; in data set [2], above 20 µM; in [6], above 20 µM; in the data set with A549 [3] it was above 20 µM; with NB-4, 13.9 µM.

On to `C=CC(=O)N(C)CCN1C(=O)c2cccc3cc([N+](=O)[O-])cc(c23)C1=O`, for which the IC50 (in [1]; in [2]; in [6]; with A549 [3]; with NB-4) was above 20 µM each time.

For the compound `CN(C)CCN1C(=O)c2cccc3cc(NC(=O)c4ccccn4)cc(c23)C1=O`, the IC50 in data set [1] came out at 3.3 µM; in data set [4], 4.5 µM; in data set [2] it was 4.5 µM; in [6], 9.9 µM; with A549 [3] it was 2.8 µM; in the data set with NB-4, 1.5 µM. Also, the inhibition entry in [7] and in data set [10] was “Active” each time. Also, the result with A549 [8], with A549 [11] and in the data set on A549 [13] was Active. Besides, the selectivity ratio in data set [5] was 3.5. Also, the inhibition entry in data set [9] was “Dose-Dependent Effect”. Besides, in the data set on A549 [12], the result was inactive.

`O=C(Nc1cc2c3c(cccc3c1)C(=O)N(CCN1C(=O)C=CC1=O)C2=O)c1ccccn1`: the IC50 (in data set [1]; in data set [2]; with A549 [3]; with NB-4) was above 20 µM each time.

For `C=CC(=O)N(C)CCN1C(=O)c2cccc3cc(N)cc(c23)C1=O`, the IC50 (in data set [1]; in data set [2]; in data set [6]; in the data set with A549 [3]; in the data set on NB-4) was above 20 µM each time.
